Test results taken from patent US20260217719A1, “CDK2 INHIBITORS” (BLUEPRINT MEDICINES CORPORATION, priority 2023, published 2026).

Columns and labels:
CDK1/Cyclin B = target: T1, CDK1/Cyclin B (Homo sapiens, UniProt P06493); assay: NanoBRET cellular target engagement assay, CDK1/Cyclin B in HEK-293 cells; format: cell-based; conditions: HEK-293 cells transfected with CDK1-NanoLuc and CCNB1; tracer K10 0.5 μM; 2 hrs
T1 construct: NV2601; host or cells: HEK-293
Experimental: (§1) In the assay, HEK-293 cells were cultured to appropriate confluence before being transiently transfected with a mix of CDK2-NanoLuc® Fusion Vector (Promega, NV2781) and CCNE1 expression vector (Promega, NV2641) for CDK2 NanoBRET assays, or CDK1-NanoLuc® Fusion Vector (Promega, NV2701) and CCNB1 expression vector (Promega, NV2601) for CDK1 NanoBRET assay, by using lipid: DNA complexes formed with FuGENE HD transfection agent (Promega, E2311). The transfected cells were cultured overnight in 1% FBS Opti-MEM media to allow the expression to fully occur. Once the expression fully occurred, varying concentrations of the test compounds were added to the cells, before a cell-permeable, fluorescent tracer (tracer K10 from Promega, N2840) was added to achieve final tracer concentration of 0.5 μM. After the addition of Nano-Glo substrate (part of a kit, Promega, N2840) and Extracellular NanoLuc inhibitor (part of a kit, Promega, N2840) 2 hrs after tracer addition, the cellular engagement of the tracer and the competition with testing compounds to the target protein was assessed based on the resulting bioluminescence resonance energy transfer (BRET) signal. BRET ratio was generated by dividing the acceptor emission signal (610 nm) by the donor emission signal (450 nm) for each sample. […] All IC50 curves were calculated using a 4 parameter logistic nonlinear regression model.

CDK2/Cyclin E1 = target: T2, CDK2/Cyclin E1 (Homo sapiens, UniProt P24941); assay: NanoBRET cellular target engagement assay, CDK2/Cyclin E1 in HEK-293 cells; format: cell-based; conditions: HEK-293 cells transfected with CDK2-NanoLuc and CCNE1; tracer K10 0.5 μM; 2 hrs
T2 construct: NV2641; host or cells: HEK-293
Experimental: as §1

T1 sequence (P06493 whole entry): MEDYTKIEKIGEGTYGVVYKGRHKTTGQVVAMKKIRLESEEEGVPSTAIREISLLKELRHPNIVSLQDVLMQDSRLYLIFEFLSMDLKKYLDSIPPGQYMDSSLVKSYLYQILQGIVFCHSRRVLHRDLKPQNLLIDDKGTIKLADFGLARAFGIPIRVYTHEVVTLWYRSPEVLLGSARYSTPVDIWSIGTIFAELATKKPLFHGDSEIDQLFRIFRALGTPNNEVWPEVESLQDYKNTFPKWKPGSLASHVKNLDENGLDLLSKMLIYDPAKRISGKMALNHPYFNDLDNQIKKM
T1 sequence (P14635 whole entry partner): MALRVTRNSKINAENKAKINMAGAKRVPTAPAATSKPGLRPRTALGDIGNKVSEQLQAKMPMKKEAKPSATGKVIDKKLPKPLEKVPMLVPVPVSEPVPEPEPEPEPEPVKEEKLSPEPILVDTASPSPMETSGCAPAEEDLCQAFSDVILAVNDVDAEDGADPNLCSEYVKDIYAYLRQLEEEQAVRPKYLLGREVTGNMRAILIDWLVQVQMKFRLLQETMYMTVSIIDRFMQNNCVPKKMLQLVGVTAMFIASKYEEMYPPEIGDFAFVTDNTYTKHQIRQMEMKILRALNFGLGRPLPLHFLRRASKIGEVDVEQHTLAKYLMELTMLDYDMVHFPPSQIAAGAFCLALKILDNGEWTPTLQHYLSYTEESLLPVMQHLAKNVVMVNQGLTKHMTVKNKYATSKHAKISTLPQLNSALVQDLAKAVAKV

Row | Structure (SMILES) | IC50 (CDK1/Cyclin B) [nM] | IC50 (CDK2/Cyclin E1) [nM]
1 | c1cncc(Cn2ccc3ncc(Nc4cc([C@@H]5CCOC5)[nH]n4)nc32)c1 (single isomer, unassigned) [Example 17, (S)-5-(pyridin-3-ylmethyl)-N-(5-(tetrahydrofuran-3-yl)-1H-pyrazol-3-yl)-5H-pyrrolo[2,3-b]pyrazin-3-amine or (R)-5-(pyridin-3-ylmethyl)-N-(5-(tetrahydrofuran-3-yl)-1H-pyrazol-3-yl)-5H-pyrrolo[2,3-b]pyrazin-3-amine] | 624 | 5.8
2 | c1cnnc(Cn2ccc3ncc(Nc4cc([C@@H]5CCOC5)[nH]n4)nc32)c1 (single isomer, unassigned) [Example 25, (S)-5-(pyridazin-3-ylmethyl)-N-(5-(tetrahydrofuran-3-yl)-1H-pyrazol-3-yl)-5H-pyrrolo[2,3-b]pyrazin-3-amine or (R)-5-(pyridazin-3-ylmethyl)-N-(5-(tetrahydrofuran-3-yl)-1H-pyrazol-3-yl)-5H-pyrrolo[2,3-b]pyrazin-3-amine] | 2780 | 128
3 | FC(F)Oc1cc(Nc2cnc3ccn(CC4CCNCC4)c3n2)n[nH]1 [Example 7, N-(5-(difluoromethoxy)-1H-pyrazol-3-yl)-5-(piperidin-4-ylmethyl)-5H-pyrrolo[2,3-b]pyrazin-3-amine] | > 10000 | 1130
4 | CN1CCC[C@H](Cn2ccc3ncc(Nc4cc(OC(F)F)[nH]n4)nc32)C1 [Example 10, (S)—N-(5-(difluoromethoxy)-1H-pyrazol-3-yl)-5-((1-methylpiperidin-3-yl)methyl)-5H-pyrrolo[2,3-b]pyrazin-3-amine] | 3210 | 6
5 | C[C@@H](C1CCOCC1)n1ccc2ncc(Nc3cc(OC(F)F)[nH]n3)nc21 [Example 11, (S)—N-(5-(difluoromethoxy)-1H-pyrazol-3-yl)-5-(1-(tetrahydro-2H-pyran-4-yl)ethyl)-5H-pyrrolo[2,3-b]pyrazin-3-amine] | 71.7 | 1.2
6 | O[C@H]1CC[C@H](n2ccc3ncc(Nc4cc(OC(F)F)[nH]n4)nc32)CC1 [Example 12, (1r,4r)-4-(3-((5-(difluoromethoxy)-1H-pyrazol-3-yl)amino)-5H-pyrrolo[2,3-b]pyrazin-5-yl)cyclohexan-1-ol] | 347 | 1.1
7 | OC1(Cn2ccc3ncc(Nc4cc(OC(F)F)[nH]n4)nc32)CCOCC1 [Example 14, 4-((3-((5-(difluoromethoxy)-1H-pyrazol-3-yl)amino)-5H-pyrrolo[2,3-b]pyrazin-5-yl)methyl)tetrahydro-2H-pyran-4-ol] | 325 | 137
8 | c1cncc(Cn2ccc3ncc(Nc4cc(C5COC5)[nH]n4)nc32)c1 [Example 16, N-(5-(oxetan-3-yl)-1H-pyrazol-3-yl)-5-(pyridin-3-ylmethyl)-5H-pyrrolo[2,3-b]pyrazin-3-amine] | 291 | 10.9
9 | N#Cc1cc(Nc2cnc3ccn(Cc4cccnc4)c3n2)n[nH]1 [Example 20, 3-((5-(pyridin-3-ylmethyl)-5H-pyrrolo[2,3-b]pyrazin-3-yl)amino)-1H-pyrazole-5-carbonitrile] | 7560 | 112
10 | COc1cc(Nc2cnc3ccn(Cc4cccnn4)c3n2)n[nH]1 [Example 22, N-(5-methoxy-1H-pyrazol-3-yl)-5-(pyridazin-3-ylmethyl)-5H-pyrrolo[2,3-b]pyrazin-3-amine] | 207 | 6.9
11 | Cc1cc(Nc2cnc3ccn(Cc4cccnn4)c3n2)n[nH]1 [Example 24, N-(5-methyl-1H-pyrazol-3-yl)-5-(pyridazin-3-ylmethyl)-5H-pyrrolo[2,3-b]pyrazin-3-amine] | 3820 | 105
12 | CN1CCC[C@@H](Cn2ccc3ncc(Nc4cc(OC(F)F)[nH]n4)nc32)C1 [Example 28, (R)—N-(5-(difluoromethoxy)-1H-pyrazol-3-yl)-5-((1-methylpiperidin-3-yl)methyl)-5H-pyrrolo[2,3-b]pyrazin-3-amine] | 8310 | 112

Now from value to compound:

Row | IC50 (CDK1/Cyclin B) [nM] | IC50 (CDK2/Cyclin E1) [nM] | Structure (SMILES)
13 | > 10000 | 162 | CN1CCC(Cn2ccc3ncc(Nc4cc(OC(F)F)[nH]n4)nc32)CC1 [Example 8, N-(5-(difluoromethoxy)-1H-pyrazol-3-yl)-5-((1-methylpiperidin-4-yl)methyl)-5H-pyrrolo[2,3-b]pyrazin-3-amine]
14 | 1730 | 4.9 | FC(F)Oc1cc(Nc2cnc3ccn(C[C@H]4CCCNC4)c3n2)n[nH]1 [Example 9, (S)—N-(5-(difluoromethoxy)-1H-pyrazol-3-yl)-5-(piperidin-3-ylmethyl)-5H-pyrrolo[2,3-b]pyrazin-3-amine]
15 | 898 | 7.4 | FC(F)Oc1cc(Nc2cnc3ccn(Cc4cccnn4)c3n2)n[nH]1 [Example 13, N-(5-(difluoromethoxy)-1H-pyrazol-3-yl)-5-(pyridazin-3-ylmethyl)-5H-pyrrolo[2,3-b]pyrazin-3-amine]
16 | 7460 | 8.8 | C[C@@H](CO)Cn1ccc2ncc(Nc3cc(OC(F)F)[nH]n3)nc21 [Example 15, (R)-3-(3-((5-(difluoromethoxy)-1H-pyrazol-3-yl)amino)-5H-pyrrolo[2,3-b]pyrazin-5-yl)-2-methylpropan-1-ol]
17 | 660 | 10.3 | COc1cc(Nc2cnc3ccn(Cc4cccnc4)c3n2)n[nH]1 [Example 18, N-(5-methoxy-1H-pyrazol-3-yl)-5-(pyridin-3-ylmethyl)-5H-pyrrolo[2,3-b]pyrazin-3-amine]
18 | 4450 | 35.7 | Cc1cc(Nc2cnc3ccn(Cc4cccnc4)c3n2)n[nH]1 [Example 19, N-(5-methyl-1H-pyrazol-3-yl)-5-(pyridin-3-ylmethyl)-5H-pyrrolo[2,3-b]pyrazin-3-amine]
19 | > 10000 | 1630 | COc1cc(Nc2cnc3ccn(C[C@H]4CCCN(C)C4)c3n2)n[nH]1 [Example 21, (S)—N-(5-methoxy-1H-pyrazol-3-yl)-5-((1-methylpiperidin-3-yl)methyl)-5H-pyrrolo[2,3-b]pyrazin-3-amine]
20 | 1300 | 110 | c1cnnc(Cn2ccc3ncc(Nc4cc(C5COC5)[nH]n4)nc32)c1 [Example 23, N-(5-(oxetan-3-yl)-1H-pyrazol-3-yl)-5-(pyridazin-3-ylmethyl)-5H-pyrrolo[2,3-b]pyrazin-3-amine]
21 | 3580 | 16.9 | FC(F)Oc1cc(Nc2cnc3ccn(C[C@@H]4CCCNC4)c3n2)n[nH]1 [Example 27, (R)—N-(5-(difluoromethoxy)-1H-pyrazol-3-yl)-5-(piperidin-3-ylmethyl)-5H-pyrrolo[2,3-b]pyrazin-3-amine]
